Results from patent publication US8133913B2, “Substituted indeno [1,2-b]indole derivatives as novel inhibitors of protein kinase CK2 and their use as tumor therapeutic agents, cytostatics and diagnostic aids” (Heinrich-Heine Universitat Dusseldof, priority 2006, dated 2012).
pIC50: −log10 of the molar value.

Columns and labels:
[1] = test system: 5637; experiment: Proliferation of tumor cell lines (Bracht et al.); type: cell-based; details: for activity at 20 µM: 5637, tested at 20 μM
[2] = test system: SISO; experiment: Proliferation of tumor cell lines (Bracht et al.); type: cell-based; details: for activity at 20 µM: tested at 20 μM
[3] = test system: KYSE-70; experiment: Proliferation of tumor cell lines (Bracht et al.); type: cell-based; details: Homo sapiens; for activity at 20 µM: KYSE-70, tested at 20 μM
[4] = target: T1, human CK2 protein kinase (holoenzyme) (Homo sapiens, UniProt P68400); experiment: Inhibition of recombinant human CK2 protein kinase (holoenzyme), radiometric filter assay with peptide […]; type: biochemical; details: for inhibition at 10 µM: 10 μM compound, DMSO control = 100% CK2 activity, at least three independent experiments; for pIC50: concentration range 30 μM to 0.01 μM, 100 μM ATP in assay buffer
T1 construct: made in house; host or cells: E. coli BL21(DE3), pT7-7 or bicistronic pET11d-CK2α, β

[5] = test system: CK2; details: known CK2 inhibitors, investigated predominantly on the rat enzyme; cited from earlier work
[6] = test system: MCF-7; experiment: Proliferation of tumor cell lines (Bracht et al.); type: cell-based; details: Homo sapiens, MCF7, read-out: IC50 (μM) Mean, inhibition of cell proliferation
[7] = test system: DAN-G; experiment: Proliferation of tumor cell lines (Bracht et al.); type: cell-based; details: read-out: IC50 (μM) Mean, inhibition of cell proliferation
[8] = test system: LCLC; experiment: Proliferation of tumor cell lines (Bracht et al.); type: cell-based; details: read-out: IC50 (μM) Mean, inhibition of cell proliferation
[9] = test system: A427; experiment: Proliferation of tumor cell lines (Bracht et al.); type: cell-based; details: Homo sapiens, A-427, read-out: IC50 (μM) Mean, inhibition of cell proliferation
[10] = test system: RT-4; experiment: Proliferation of tumor cell lines (Bracht et al.); type: cell-based; details: Homo sapiens, read-out: IC50 (μM) Mean, inhibition of cell proliferation

T1 sequence (P68400 whole entry): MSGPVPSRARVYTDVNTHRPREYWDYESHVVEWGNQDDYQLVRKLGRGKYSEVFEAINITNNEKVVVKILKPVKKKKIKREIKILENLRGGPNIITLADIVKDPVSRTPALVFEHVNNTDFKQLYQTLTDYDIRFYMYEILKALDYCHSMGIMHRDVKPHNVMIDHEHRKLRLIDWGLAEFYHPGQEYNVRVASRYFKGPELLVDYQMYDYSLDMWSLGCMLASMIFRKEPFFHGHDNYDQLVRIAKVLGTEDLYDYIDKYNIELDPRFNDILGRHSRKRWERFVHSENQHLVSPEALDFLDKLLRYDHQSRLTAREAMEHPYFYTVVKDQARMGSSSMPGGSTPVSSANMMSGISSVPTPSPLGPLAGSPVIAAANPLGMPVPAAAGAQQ
T1 sequence (P67870 whole entry partner): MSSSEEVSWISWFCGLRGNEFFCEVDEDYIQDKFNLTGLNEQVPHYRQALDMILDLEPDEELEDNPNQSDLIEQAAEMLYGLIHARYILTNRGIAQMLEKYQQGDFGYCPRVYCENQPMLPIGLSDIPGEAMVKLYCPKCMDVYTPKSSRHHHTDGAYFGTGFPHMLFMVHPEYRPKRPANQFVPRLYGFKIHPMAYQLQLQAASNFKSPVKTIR

Row | Compound | activity at 20 µM ([1]; read-out: T/C (%) Mean) [%] | activity at 20 µM ([2]; read-out: T/C (%) Mean) [%] | activity at 20 µM ([3]; read-out: T/C (%) Mean) [%] | melting point | also measured
1 | COC(=O)C1C(=O)c2c([nH]c3c2C(=O)c2ccccc2-3)CC1C (stereo not shown) [Compound 4l, Methyl 7-methyl-9,10-dioxo-5,6,7,8,9,10-hexahydroindeno[1,2-b]indole-8-carboxylate] | 79.1 | 104 | 98.8 | 287 °C | 
2 | O=C1CCCc2c1c1c(n2CCO)-c2ccccc2C1=O [Example 14, 5-(2-Hydroxyethyl)-5,6,7,8-tetrahydro-indeno[1,2-b]indole-9,10-dione] |  |  |  | 262 to 263 °C | 
3 | O=C1CCCc2c1c1c(n2CCCO)-c2ccccc2C1=O [Example 12, 5-(3-Hydroxypropyl)-5,6,7,8-tetrahydro-indeno[1,2-b]indole-9,10-dione] |  |  |  | 241 °C | 
4 | COc1ccc(Cn2c3c(c4c2-c2ccccc2C4=O)C(=O)CCC3)cc1 [Compound 4i, 5-(4-Methoxybenzyl)-5,6,7,8-tetrahydro-indeno[1,2-b]indole-9,10-dione] | 78.2 | 93.6 | 79.2 | 198 to 199 °C | 
5 | O=c1ccc(=O)c2c1c1c(=O)c3ccccc3c1n2CCc1ccccc1 [Compound 6d, 5-Phenethyl-5H-indeno[1,2-b]indole-6,9,10-trione] |  |  |  |  | inhibition at 10 µM [4]: 70%; pIC50 [4]: 5.24; activity at 5 µM ([1]; 5637, tested at 5 μM (*), read-out: T/C (%) Mean): 69.7%; activity at 5 µM ([2]; tested at 5 μM (*), read-out: T/C (%) Mean): 87.2%; activity at 5 µM ([3]; KYSE-70, tested at 5 μM (*), read-out: T/C (%) Mean): 92%
6 | COc1ccc(CCn2c3c(c4c2-c2ccccc2C4=O)C(=O)CCC3)cc1OC (hydrate or solvate) [Compound 4j, 5-[2-(3,4-Dimethoxyphenyl)ethyl]-5,6,7,8-tetrahydroindeno[1,2-b]indole-9,10-dione] |  |  |  | 189 to 190 °C | 
7 | O=C1CCCc2[nH]c3c(c21)C(=O)c1ccccc1-3 [Compound 4a, 5,6,7,8-Tetrahydroindeno[1,2-b]indole-9,10-dione] | 80.9 | 99.9 | 77.5 | 332 to 333 °C | 
8 | CC(c1ccccc1)n1c2c(c3c1-c1ccccc1C3=O)C(=O)CCC2 (racemic) [Compound 4f, DL-5-(1-phenylethyl)-5,6,7,8-tetrahydro-indeno[1,2-b]indole-9,10-dione] | 64.9 | 95.8 | 62.3 | 201 °C | inhibition at 10 µM [4]: 66%
9 | O=C1CCCc2c1c1c(n2Cc2ccccc2)-c2ccccc2C1=O [Compound 4c, 5-Benzyl-5,6,7,8-tetrahydroindeno[1,2-b]indole-9,10-dione] | 53.6 | 86.4 | 65.8 | 185 °C | 
10 | O=C(O)Cn1c2c(c3c1-c1ccccc1C3=O)C(=O)CCC2 [Example 13, (9,10-Dioxo-6,8,9,10-tetrahydro-7H-indeno[1,2-b]indol-5-yl)acetic acid] |  |  |  | 279 to 280 °C (dec.) | 
11 | Cc1cc(O)c2c(c1)C(=O)c1cc(O)cc(O)c1C2=O [emodin] |  |  |  |  | pIC50 [5]: 5.70
12 | CN(C)CCn1c2c(c3c1-c1ccccc1C3=O)C(=O)CCC2 [Example 11, 5-(2-Dimethylaminoethyl)-5,6,7,8-tetra-hydroindeno[1,2-b]indole-9,10-dione] |  |  |  | 178 °C | 
13 | CCOCCCn1c2c(c3c1-c1ccccc1C3=O)C(=O)CCC2 [Example 16, 5-Ethoxypropyl-5,6,7,8-tetrahydro-indeno[1,2-b]indole-9,10-dione] |  |  |  | 129 °C | 
14 | CC(C)n1c2c(c3c(O)cccc31)C(=O)c1ccccc1-2 [Compound 5b, 9-Hydroxy-5-isopropyl-5H-indeno[1,2-b]indol-10-one] | 77.5 | 104 | 77.6 |  | 
15 | COC(=O)C1C(=O)c2c3c(n(-c4ccccc4)c2CC1C)-c1ccccc1C3=O (stereo not shown) [Example 20, Methyl 7-methyl-9,10-dioxo-5-phenyl-5,6,7,8,9,10-hexahydroindeno[1,2-b]indole-8-carboxylate] |  |  |  | 249 to 250 °C | 
16 | O=C1CCCc2c1c1c(n2-c2ccccc2)-c2ccccc2C1=O [Compound 4g, 5-Phenyl-5,6,7,8-tetrahydroindeno[1,2-b]indole-9,10-dione] |  |  |  |  | inhibition at 10 µM [4]: 60%; pIC50 [4]: 5.84; activity at 10 µM ([1]; 5637, tested at 10 μM (**), read-out: T/C (%) Mean): 86.3%; activity at 10 µM ([2]; tested at 10 μM (**), read-out: T/C (%) Mean): 101%; activity at 10 µM ([3]; KYSE-70, tested at 10 μM (**), read-out: T/C (%) Mean): 81.8%
17 | O=C1CC(c2ccccc2)Cc2c1c1c(n2Cc2ccccc2)-c2ccccc2C1=O (stereo not shown) [Compound 4n, 5-Benzyl-7-phenyl-5,6,7,8-tetrahydro-indeno[1,2-b]indole-9,10-dione] | 39.4 | 80.9 | 75.2 |  | 
18 | O=C1CCCc2c1c1c(n2CCc2ccccc2)-c2ccccc2C1=O [Compound 4d, 5-Phenethyl-5,6,7,8-tetrahydro-indeno[1,2-b]indole-9,10-dione] | 48 | 65.5 | 67.5 |  | inhibition at 10 µM [4]: 67%; pIC50 [4]: 6.09; IC50 ([1]; 5637, read-out: IC50 (μM) Mean, inhibition of cell proliferation): 10.7 µM; IC50 ([2]; read-out: IC50 (μM) Mean, inhibition of cell proliferation): 12.3 µM; IC50 ([3]; KYSE-70, read-out: IC50 (μM) Mean, inhibition of cell proliferation): > 20 µM; IC50 [6]: 6.53 µM; IC50 [7]: > 20 µM; IC50 [8]: 5.66 µM; IC50 [9]: > 20 µM; IC50 [10]: > 20 µM
19 | CC1CC(=O)c2c3c(n(CCc4ccccc4)c2C1)-c1ccccc1C3=O (stereo not shown) [Compound 4p, 7-Methyl-5-phenethyl-5,6,7,8-tetrahydro-indeno[1,2-b]indole-9,10-dione] | 49.8 | 96.3 | 72.1 |  | 
20 | COc1ccc(CCn2c3c(c4c2-c2ccccc2C4=O)C(=O)CCC3)cc1OC [Compound 4j, 5-[2-(3,4-Dimethoxyphenyl)ethyl]-5,6,7,8-tetrahydroindeno[1,2-b]indole-9,10-dione] | 101 | 105 | 91.5 |  | 
